Measured values: ChEMBL document CHEMBL1134746, “[3-cis-3,5-Dimethyl-(1-piperazinyl)alkyl]-bis-(4'-fluorophenyl)amine analogues as novel probes for the dopamine transporter” (Bioorg Med Chem Lett, 2001)

Key:
[1] = target: Sodium-dependent dopamine transporter (Rattus norvegicus, UniProt P23977); assay: Binding affinity at Dopamine transporter by displacing [3H]WIN-35428 from rat caudate putamen; assay type: tissue-based
[2] = target: Sodium-dependent serotonin transporter (Rattus norvegicus, UniProt P31652); assay: Binding affinity at Serotonin transporter using [3H]citalopram as radioligand from rat brain
Sequence of Sodium-dependent serotonin transporter (P31652 whole entry): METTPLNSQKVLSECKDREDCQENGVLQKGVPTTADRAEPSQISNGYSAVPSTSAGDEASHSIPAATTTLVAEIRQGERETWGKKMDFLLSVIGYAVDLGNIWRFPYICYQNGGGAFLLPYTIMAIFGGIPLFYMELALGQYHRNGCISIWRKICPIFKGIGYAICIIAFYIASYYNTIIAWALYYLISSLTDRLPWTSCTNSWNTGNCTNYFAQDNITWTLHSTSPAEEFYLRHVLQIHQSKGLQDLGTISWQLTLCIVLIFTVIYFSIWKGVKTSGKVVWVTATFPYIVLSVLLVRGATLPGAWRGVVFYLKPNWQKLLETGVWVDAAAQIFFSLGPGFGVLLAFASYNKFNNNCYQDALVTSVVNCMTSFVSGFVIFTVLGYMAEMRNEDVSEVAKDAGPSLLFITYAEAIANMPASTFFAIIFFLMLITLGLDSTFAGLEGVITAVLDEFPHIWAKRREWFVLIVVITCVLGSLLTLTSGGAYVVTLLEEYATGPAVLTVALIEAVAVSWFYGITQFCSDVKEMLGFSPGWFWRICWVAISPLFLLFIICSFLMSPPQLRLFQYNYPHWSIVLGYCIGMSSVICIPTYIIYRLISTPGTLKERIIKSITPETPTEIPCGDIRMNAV

[3] = target: Norepinephrine transporter (Rattus norvegicus, UniProt Q9WTR4); assay: Binding affinity at norepinephrine transporter using [3H]nisoxetine as radioligand from rat brain
Sequence of Norepinephrine transporter (Q9WTR4 whole entry): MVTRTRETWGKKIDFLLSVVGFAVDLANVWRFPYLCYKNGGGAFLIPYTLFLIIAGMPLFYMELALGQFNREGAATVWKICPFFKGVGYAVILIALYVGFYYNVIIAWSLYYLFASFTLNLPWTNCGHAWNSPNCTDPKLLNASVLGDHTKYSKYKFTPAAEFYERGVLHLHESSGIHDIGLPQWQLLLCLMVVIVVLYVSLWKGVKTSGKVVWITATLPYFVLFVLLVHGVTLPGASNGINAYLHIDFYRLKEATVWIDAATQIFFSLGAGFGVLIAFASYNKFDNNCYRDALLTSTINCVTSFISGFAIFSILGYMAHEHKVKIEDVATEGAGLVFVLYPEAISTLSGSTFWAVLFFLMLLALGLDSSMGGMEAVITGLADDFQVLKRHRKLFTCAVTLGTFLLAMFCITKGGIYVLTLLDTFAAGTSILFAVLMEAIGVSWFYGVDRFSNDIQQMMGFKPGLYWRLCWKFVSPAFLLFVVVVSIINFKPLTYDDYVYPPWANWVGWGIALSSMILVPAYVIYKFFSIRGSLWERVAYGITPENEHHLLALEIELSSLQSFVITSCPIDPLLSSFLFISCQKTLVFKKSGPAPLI

[4] = tested on: Mus musculus; assay: Tested for rate of horizontal activity during a 30-min period after administration of compound at a concentration of 10 mg/kg; assay type: functional
[5] = tested on: Mus musculus; assay: Tested for rate of horizontal activity during a 30-min period after administration of compound at a concentration of 50 mg/kg; assay type: functional
[6] = tested on: Mus musculus; assay: Tested for rate of horizontal activity during a 30-min period after administration of compound at a concentration of 30 mg/kg; assay type: functional
[7] = tested on: Mus musculus; assay: Tested for rate of horizontal activity during a 30-min period after administration of compound at a concentration of 5 mg/kg; assay type: functional
[8] = tested on: Monoamine transporters; serotonin & dopamine (Rattus norvegicus); assay: Selectivity ratio for DAT to SERT evaluated
[9] = tested on: Mus musculus; assay: Tested for rate of horizontal activity during a 30-min period after administration of compound at a concentration of 0.3 mg/kg; assay type: functional
[10] = tested on: Mus musculus; assay: Tested for rate of horizontal activity during a 30-min period after administration of compound at a concentration of 3 mg/kg; assay type: functional
[11] = tested on: Mus musculus; assay: Tested for rate of horizontal activity during a 30-min period after administration of compound at a concentration of 0.1 mg/kg; assay type: functional
[12] = tested on: Mus musculus; assay: Tested for rate of horizontal activity during a 30-min period after administration of compound at a concentration of 100 mg/kg; assay type: functional
[13] = tested on: Mus musculus; assay: Tested for rate of horizontal activity during a 30-min period after administration of compound at a concentration of 1.0 mg/kg; assay type: functional
[14] = tested on: Monoamine transporters; Norepinephrine & dopamine (Rattus norvegicus); assay: Selectivity ratio of DAT to that of NET receptor
[15] = Selectivity ratio for DAT to SERT evaluated; assay type: functional
[16] = Selectivity ratio of DAT to that of NET receptor; assay type: functional

Sequence of Sodium-dependent dopamine transporter (P23977 whole entry): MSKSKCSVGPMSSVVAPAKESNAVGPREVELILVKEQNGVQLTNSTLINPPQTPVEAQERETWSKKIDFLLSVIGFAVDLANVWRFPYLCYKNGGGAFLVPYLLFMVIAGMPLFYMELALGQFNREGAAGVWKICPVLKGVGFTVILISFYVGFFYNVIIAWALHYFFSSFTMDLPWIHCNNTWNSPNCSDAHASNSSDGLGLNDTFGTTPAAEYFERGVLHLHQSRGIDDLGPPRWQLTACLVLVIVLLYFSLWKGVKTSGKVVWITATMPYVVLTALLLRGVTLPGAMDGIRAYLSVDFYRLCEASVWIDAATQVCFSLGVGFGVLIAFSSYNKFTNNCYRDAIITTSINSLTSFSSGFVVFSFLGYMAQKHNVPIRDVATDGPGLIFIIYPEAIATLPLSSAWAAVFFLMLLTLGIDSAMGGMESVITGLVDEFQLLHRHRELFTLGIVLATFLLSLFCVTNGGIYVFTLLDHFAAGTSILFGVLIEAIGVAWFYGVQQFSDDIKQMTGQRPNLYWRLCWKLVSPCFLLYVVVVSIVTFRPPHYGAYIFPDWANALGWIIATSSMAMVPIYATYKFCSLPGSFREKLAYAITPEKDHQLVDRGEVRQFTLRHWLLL

Row | Compound | Ki [1] | Ki [2] | Ki [3] | Horizontal activity [4] | Horizontal activity [6] | Ratio [8] | Horizontal activity [10] | Horizontal activity [12] | Ratio [14] | further results
1 | C[C@@H]1CN(CCCN(c2ccc(F)cc2)c2ccc(F)cc2)C[C@@H](C)N1CCc1ccc(Cl)c(Cl)c1 | 0.131 µM | 4.3 µM | > 100 µM | – | – | – | – | – | – | –
2 | COC(=O)[C@@H]1C2CC[C@@H](C[C@@H]1OC(=O)c1ccccc1)N2C (single isomer, unassigned) [COCAINE] | – | – | – | 500 Counts min-1 | 600 Counts min-1 | – | – | – | – | Horizontal activity [5]: 550 Counts min-1; Horizontal activity [7]: 300 Counts min-1
3 | C[C@@H]1CN(CCCN(c2ccc(F)cc2)c2ccc(F)cc2)C[C@@H](C)N1CCCc1ccccc1 | 0.0176 µM | 2.13 µM | 1.02 µM | ~250 Counts min-1 | ~215 Counts min-1 | 121 | ~240 Counts min-1 | ~50 Counts min-1 | 60 | Horizontal activity [9]: ~210 Counts min-1; Horizontal activity [11]: ~200 Counts min-1; Horizontal activity [13]: ~250 Counts min-1
4 | C[C@@H]1CN(CCCN(c2ccccc2)c2ccccc2)C[C@@H](C)N1 | 0.813 µM | 70.9 µM | 6.81 µM | – | – | 87 | – | – | 8 | –
5 | C[C@@H]1CN(CCCN(c2ccccc2)c2ccccc2)C[C@@H](C)N1CCc1ccc(Cl)c(Cl)c1 | 0.261 µM | 5.01 µM | > 30 µM | – | – | – | – | – | – | Ratio [15]: 19; Ratio [16]: > 115
6 | C[C@@H]1CN(CCCN(c2ccccc2)c2ccccc2)C[C@@H](C)N1CCCc1ccccc1 | 0.061 µM | 1.22 µM | 3.64 µM | – | – | 20 | – | – | 60 | –
7 | CC1CN(CCCn2c3ccccc3c3ccccc32)C[C@@H](C)N1 (single isomer, unassigned) [RIMCAZOLE] | – | 1.71 µM | – | ~250 Counts min-1 | ~220 Counts min-1 | – | ~175 Counts min-1 | ~0 Counts min-1 | – | –
8 | Fc1ccc(C(OCCN2CCN(CCCc3ccccc3)CC2)c2ccc(F)cc2)cc1 [VANOXERINE] | – | – | – | 300 Counts min-1 | 400 Counts min-1 | – | 175 Counts min-1 | 175 Counts min-1 | – | –
9 | C[C@@H]1CN(CCCN(c2ccc(F)cc2)c2ccc(F)cc2)C[C@@H](C)N1 | 0.0832 µM | 13.1 µM | 16.9 µM | – | – | 158 | – | – | 203 | –
